Data taken from US11426397B2, “Piperidinyl- and piperazinyl-substituted heteroaromatic carboxamides as modulators of GPR6” (TAKEDA PHARMACEUTICAL COMPANY LIMITED, priority 2017, dated 2022).

Target: T1, GPR6 receptor expressed in CHO-K1 cells (Homo sapiens, UniProt P46095)
T1 construct: expressed in transfected cells
Assay: In vitro inhibition of cAMP (EC50), cell-based HTRF cAMP assay
Details: inhibition of constitutive cAMP activity of GPR6 in CHO-K1 cells
Protocol: I. In Vitro Inhibition of cAMP (EC50)
This cell based assay measures the ability of test compounds to inhibit the constitutive cAMP activity of GPR6 receptor expressed in CHO-K1 cells. CHO cells are stably expressed with GPR6 receptor, whose expression is controlled by a tetracycline inducible element. The cells were cultured in medium containing F12K, 10% FBS, 1% Penn/Strep, 200 μg/mL Hygromycin. GPR6 receptor expression is induced for 20 hours with 2 μg/mL doxycycline (Sigma D9891) in growth media. After addition of doxycycline, the cells are plated at a density of 450-750 cells per well in 96-well half-volume black tissue culture plates (Costar) and placed in an incubator (37° C., 5% CO2) for 20 hours prior to cAMP assays.
Culture media is removed from the cells and they are washed with 50 μL/well of Ringer's Buffer (MgCl2 0.047 mg/mL, NaH2PO4 0.18 mg/mL, Na2HPO4 0.1 mg/mL, KCl 0.34 mg/mL, NaHCO3 1.26 mg/mL, D-glucose 1.8 mg/mL, NaCl 7 mg/mL; pH=7.4). The test compounds are suspended in DMSO, diluted in Ringer's Buffer containing 0.5% fatty acid free BSA plus 300 μM IBMX, and incubated on the cells for 45 minutes at 37° C. and 5% CO2. After incubation, the cells are conditioned for 10 minutes at room temp with Eu-cAMP tracer solution from a Perkin Elmer Lance HTRF Ultra cAMP assay kit (TRF0263). Then ULight™-anti-cAMP solution from the Lance HTRF kit is added and incubated on a shaker at room temp for 1 hour prior to HTRF detection in a Perkin Elmer Envision plate reader. EC50 curves are generated with a four-parameter logistic equation using GraphPad Prism 5.03.
Table 1 lists biological assay data (in vitro inhibition of cAMP) for some of the compounds shown in the examples, where larger pEC50 values represent higher activity or potency. All of the compounds shown in Table 1 were tested in accordance with a cell-based assay which measures the ability of test compounds to inhibit the constitutive cAMP activity of GPR6 receptor expressed in CHO-K1 cells (reported as pEC50). The assay is described in the specification under the heading “In vitro inhibition of cAMP (EC50).”

T1 sequence (P46095 whole entry): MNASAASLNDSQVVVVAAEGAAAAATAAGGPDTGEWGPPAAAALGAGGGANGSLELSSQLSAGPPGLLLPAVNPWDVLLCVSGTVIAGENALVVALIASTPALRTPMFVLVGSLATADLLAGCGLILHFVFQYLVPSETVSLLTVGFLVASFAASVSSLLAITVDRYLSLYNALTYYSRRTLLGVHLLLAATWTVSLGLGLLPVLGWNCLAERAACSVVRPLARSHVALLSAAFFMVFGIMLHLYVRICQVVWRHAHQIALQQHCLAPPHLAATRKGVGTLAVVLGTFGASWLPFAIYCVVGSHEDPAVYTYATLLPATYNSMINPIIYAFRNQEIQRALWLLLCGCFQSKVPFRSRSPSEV

Row | pEC50, in vitro inhibition of cAMP | Compound
1 | 6.0 | COc1ncccc1C(=O)Nc1cc(C#N)ccc1N1CCN(Cc2cscn2)CC1 [Example 241, N-(5-cyano-2-(4-(thiazol-4-ylmethyl)piperazin-1-yl)phenyl)-2-methoxynicotinamide]
2 | 7.2 | COc1ncccc1C(=O)Nc1cc(C#N)ncc1N1CCC(Oc2ccc(F)cc2F)CC1 [Example 261, N-(2-cyano-5-(4-(2,4-difluorophenoxy)piperidin-1-yl)pyridin-4-yl)-2-methoxynicotinamide]
3 | 7.4 | CCn1ncc(C(=O)Nc2cc(C#N)cnc2N2CCC(Oc3ccc(F)cc3F)CC2)c1OC [Example 120, N-(5-cyano-2-(4-(2,4-difluorophenoxy)piperidin-1-yl)pyridin-3-yl)-1-ethyl-5-methoxy-1H-pyrazole-4-carboxamide]
4 | 6.5 | COc1ccc(F)cc1CN1CCN(c2ncc(C#N)cc2NC(=O)c2cn(C)nc2OC)CC1 [Example 161, N-(5-cyano-2-(4-(5-fluoro-2-methoxybenzyl)piperazin-1-yl)pyridin-3-yl)-3-methoxy-1-methyl-1H-pyrazole-4-carboxamide]
5 | 5.8 | Cn1cc2ccc(NC(=O)c3ccccn3)c(N3CCC(Oc4ccc(F)cc4F)CC3)c2n1 [Example 149, N-(7-(4-(2,4-difluorophenoxy)piperidin-1-yl)-2-methyl-2H-indazol-6-yl)picolinamide]
6 | 6.3 | CC(C)n1cc(Br)cc(C(=O)Nc2cc(C#N)ccc2N2CCC(Oc3ccc(F)cc3F)CC2)c1=O [Example 182, 5-bromo-N-(5-cyano-2-(4-(2,4-difluorophenoxy)piperidin-1-yl)phenyl)-1-isopropyl-2-oxo-1,2-dihydropyridine-3-carboxamide]
7 | <4.5 | COc1c(C(=O)Nc2cc(C#N)ccc2N2CCC(Oc3ccc(F)cc3F)CC2)nnn1Cc1ccccc1Cl [Example 221, 1-(2-chlorobenzyl)-N-(5-cyano-2-(4-(2,4-difluorophenoxy)piperidin-1-yl)phenyl)-5-methoxy-1H-1,2,3-triazole-4-carboxamide]
8 | 7.1 | COc1ccc(C(=O)Nc2cc(C#N)ccc2N2CCC(Oc3ccc(F)cc3F)CC2)nc1 [Example 133, N-(5-cyano-2-(4-(2,4-difluorophenoxy)piperidin-1-yl)phenyl)-5-methoxypicolinamide]
9 | <4.5 | COc1c(Cl)cc(Cl)cc1C(=O)Nc1cc(C#N)ccc1N1CCC(Oc2ccc(F)cc2F)CC1 [Example 234, 3,5-dichloro-N-(5-cyano-2-(4-(2,4-difluorophenoxy)piperidin-1-yl)phenyl)-2-methoxybenzamide]
10 | 7.3 | N#Cc1ccc(N2CCC(Oc3ccc(F)cc3F)CC2)c(NC(=O)c2cccnc2OC(F)F)c1 [Example 276, N-(5-cyano-2-(4-(2,4-difluorophenoxy)piperidin-1-yl)phenyl)-2-(difluoromethoxy)nicotinamide]
11 | 7.2 | Cn1cccc(C(=O)Nc2ccc(S(C)(=O)=O)cc2N2CCC(Oc3ccc(F)cc3F)CC2)c1=O [Example 30, N-(2-(4-(2,4-difluorophenoxy)piperidin-1-yl)-4-(methylsulfonyl)phenyl)-1-methyl-2-oxo-1,2-dihydropyridine-3-carboxamide]
12 | 7.1 | COc1ccc(CN2CCN(c3ncc(C#N)cc3NC(=O)c3cn(C)nc3OC)CC2)c(F)c1 [Example 152, N-(5-cyano-2-(4-(2-fluoro-4-methoxybenzyl)piperazin-1-yl)pyridin-3-yl)-3-methoxy-1-methyl-1H-pyrazole-4-carboxamide]
13 | 6.0 | COc1ccc(OC)c(C(=O)Nc2cc(C#N)ccc2N2CCC(Oc3ccc(F)cc3F)CC2)c1 [Example 205, N-(5-cyano-2-(4-(2,4-difluorophenoxy)piperidin-1-yl)phenyl)-2,5-dimethoxybenzamide]
14 | 5.9 | N#Cc1ccc(N2CCC(Oc3ccc(F)cc3F)CC2)c(NC(=O)c2csnn2)c1 [Example 116, N-(5-cyano-2-(4-(2,4-difluorophenoxy)piperidin-1-yl)phenyl)-1,2,3-thiadiazole-4-carboxamide]
15 | 7.3 | COc1cc(F)c(F)cc1C(=O)Nc1cc(C#N)ccc1N1CCC(Oc2ccc(F)cc2F)CC1 [Example 229]
16 | 6.8 | Cc1ccc(C(=O)Nc2cc(C#N)ccc2N2CCC(Oc3ccc(F)cc3F)CC2)c(=O)n1C [Example 79, N-(5-cyano-2-(4-(2,4-difluorophenoxy)piperidin-1-yl)phenyl)-1,6-dimethyl-2-oxo-1,2-dihydropyridine-3-carboxamide]
17 | 7.2 | Cn1cccc(C(=O)Nc2cc(C#N)ccc2N2CCC(C(F)c3cc(F)ccc3F)CC2)c1=O (stereo not shown) [Example 87]
18 | 6.9 | Cn1ccc(C(=O)Nc2cc(C#N)ccc2N2CCC(Oc3ccc(F)cc3F)CC2)n1 [Example 42, N-(5-cyano-2-(4-(2,4-difluorophenoxy)piperidin-1-yl)phenyl)-1-methyl-1H-pyrazole-3-carboxamide]
19 | 6.7 | COc1ncccc1C(=O)Nc1cc(C(=O)N(C)C)ccc1N1CCC(Oc2ccc(F)cc2F)CC1 [Example 265]
20 | 4.9 | CN(C(=O)c1ccccc1O)c1ccccc1N1CCN(C(=O)c2ccc(Cl)cc2)CC1 [Example 260]
21 | 6.4 | Cn1cccc(C(=O)Nc2cc(C#N)ccc2N2CCC(Oc3cccc(F)c3)CC2)c1=O [Example 12, N-(5-cyano-2-(4-(3-fluorophenoxy)piperidin-1-yl)phenyl)-1-methyl-2-oxo-1,2-dihydropyridine-3-carboxamide]
22 | 6.4 | Cn1c2c(cc(C(=O)Nc3cc(C#N)ccc3N3CCC(Oc4ccc(F)cc4F)CC3)c1=O)CCCC2 [Example 185]
23 | 6.5 | COc1ncccc1C(=O)Nc1cc(C#N)ccc1N1CCN(Cc2ncc(F)cc2F)CC1 [Example 290]
24 | 6.8 | COc1nn(C)cc1C(=O)Nc1cc(C#N)ncc1N1CCN(Cc2ccc(F)c(F)c2F)CC1 [Example 266, N-(2-cyano-5-(4-(2,3,4-trifluorobenzyl)piperazin-1-yl)pyridin-4-yl)-3-methoxy-1-methyl-1H-pyrazole-4-carboxamide]
25 | 6.3 | Cc1nc(C(=O)Nc2cc(C#N)ccc2N2CCC(Oc3ccc(F)cc3F)CC2)c(C)o1 [Example 110, N-(5-cyano-2-(4-(2,4-difluorophenoxy)piperidin-1-yl)phenyl)-2,5-dimethyloxazole-4-carboxamide]
26 | 7.3 | COc1ccc(F)cc1C(=O)Nc1cc(C#N)ccc1N1CCC(Oc2ccc(F)cc2F)CC1 [Example 210, N-(5-cyano-2-(4-(2,4-difluorophenoxy)piperidin-1-yl)phenyl)-5-fluoro-2-methoxybenzamide]
27 | 7.3 | COc1nn(C)cc1C(=O)Nc1cc(C#N)cnc1N1CCC(Oc2ccc(F)cc2F)CC1 [Example 60, N-(5-cyano-2-(4-(2,4-difluorophenoxy)piperidin-1-yl)pyridin-3-yl)-3-methoxy-1-methyl-1H-pyrazole-4-carboxamide]
28 | 5.5 | N#Cc1ccc(N2CCC(Oc3ccc(F)cc3F)CC2)c(NC(=O)c2ncoc2C2CC2)c1 [Example 111]
